Data reported in patent US20250122217A1, “ANHYDROUS CRYSTALLINE FORMS OF 2-((4S)-6-(4-CHLOROPHENYL)-1-METHYL-4H-BENZO[C]ISOXAZOLO[4,5-E]AZEPIN-4-YL)ACETAMIDE” (CONSTELLATION PHARMACEUTICALS. INC., priority 2022, published 2025).

Key:
[1] = Competitive slurry experiments of crystalline forms, XRD readout; format: physicochemical; conditions: for XRD result of competitive slurry: about 5-7 days; for water activities at which the form is thermodynamically stable: conclusion from the competitive slurries of Table 3
Protocol: The following competitive slurry experiments were performed using inventive anhydrous Form B and monohydrate Form A disclosed in U.S. Pat. No. 9,969,747.
Aqueous mixtures were created and tested in duplicate for water activity at ambient temperature. Amorphous Pelabresib was used to create a saturated solution in the respective solvent. The supernatant was added to solids of monohydrate Form A and anhydrous Form B and allowed to stir at the respective temperature for about 5-7 days. In all samples except for the butanol:water mixture, a small quantity of Form C was also added to the competitive slurry. Form C can be prepared by slurring amorphous pelabresib in water:ethanol (90:10) for about 5 days The results of the competitive slurries are shown below in Table 3.

[2] = Dynamic vapor sorption (DVS); format: physicochemical
in vivo = assay: in vivo; design: species or system beagle dogs; conditions: male, beagle, dog, po, 5 mg/kg
Protocol: Single dose PK parameters in plasma were determined following oral gavage administration of micronized anhydrous Form B at 5 mg/kg to male beagle dogs (n=6/Group) in 0.5% (w/v) aqueous Methocel (4000 cps). The dose volume of PO groups was 2 mL/kg. For intravenous (0.5 mg/kg) and oral gavage (5 mg/kg), plasma samples were collected at the following time points: 0, 0.25, 0.5, 1, 2, 4, 6, 8, 12, 24 h post dose and analyzed. […] (5 mg/kg, 2.5 mg/mL, suspension).

Row | Compound | XRD result of competitive slurry ([1]; Form A + Form B (no Form C), 2-butanol:water (95:5), water activity 0.72, 40° C.) | XRD result of competitive slurry ([1]; Form A + Form B (no Form C), 2-butanol:water (95:5), water activity 0.72, RT) | XRD result of competitive slurry ([1]; Form A + Form B + small quantity of Form C, EtOH:water (90:10), water activity 0.54, 40° C.) | XRD result of competitive slurry ([1]; Form A + Form B + small quantity of Form C, EtOH:water (90:10), water activity 0.54, RT) | XRD result of competitive slurry ([1]; Form A + Form B + small quantity of Form C, IPA:water (98:2), water activity 0.27, 40° C.) | XRD result of competitive slurry ([1]; Form A + Form B + small quantity of Form C, IPA:water (98:2), water activity 0.27, RT) | XRD result of competitive slurry ([1]; Form A + Form B + small quantity of Form C, THF:water (10:90), water activity 0.97, 40° C.) | XRD result of competitive slurry ([1]; Form A + Form B + small quantity of Form C, THF:water (10:90), water activity 0.97, RT) | water activities at which the form is thermodynamically stable [1] [%] | hygroscopicity by DVS ([2]; DVS profile, FIG. 3) | weight gain (DVS) ([2]; at 95% RH) | AUC(0-t) (in vivo) [µg·h/mL] | Cmax (in vivo) [µg/mL] | Tmax (in vivo) [h]
1 | Cc1noc2c1-c1ccccc1C(c1ccc(Cl)cc1)=N[C@H]2CC(N)=O [Pelabresib, 2-((4S)-6-(4-chlorophenyl)-1-methyl-4H-benzo[c]isoxazolo[4,5-e]azepin-4-yl)acetamide] | Form B | Form B | Form B | Form B | Form B + small peak | Form B | Form A | Form C | – | – | – | – | – | –
2 | Cc1noc2c1-c1ccccc1C(c1ccc(Cl)cc1)=N[C@H]2CC(N)=O (single isomer, unassigned) [Form A, reference compound] | – | – | – | – | – | – | – | – | ≥ 97 | – | – | – | – | –
3 | Cc1noc2c1-c1ccccc1C(c1ccc(Cl)cc1)=N[C@H]2CC(N)=O (single isomer, unassigned) [Form B] | – | – | – | – | – | – | – | – | ≤ 72 | non-hygroscopic | about 0.5% | 12.1 ± 1.45 | 1.75 ± 0.225 | 1.17 ± 0.41
